Source: US12435091B2, “RNA-binding protein multimerization inhibitors and methods of use thereof” (THE UAB RESEARCH FOUNDATION, priority 2020, dated 2025)
In brackets after ≈: the same amount, converted by molar mass.

What was measured:
[1] = test system: HuR; assay: HuR localization (N/C ratio) in LPS-stimulated cultured astrocytes; format: cell-based; details: 0.5 μM for 24 hours
Experimental: First, the effect of SRI-42127 on HuR localization in astrocytes was studied. […] Quantification of the N/C HuR ratio using methodology described with microglia was 2.0. With LPS stimulation, there was translocation of HuR to the cytoplasm consistent with astrocyte activation and the N/C ratio decreased to 0.4 (P<0.001). When cells were treated with SRI-42127, this ratio was reversed back to pre-stimulation value (1.9). These findings indicate that SRI-42127 blocks cytoplasmic translocation of HuR in activated astrocytes.

[2] = target: AAK1 (Homo sapiens, UniProt Q2M2I8); assay: SelectScreen kinase profiling, LanthaScreen Binding
AAK1, sequence (Q2M2I8 whole entry): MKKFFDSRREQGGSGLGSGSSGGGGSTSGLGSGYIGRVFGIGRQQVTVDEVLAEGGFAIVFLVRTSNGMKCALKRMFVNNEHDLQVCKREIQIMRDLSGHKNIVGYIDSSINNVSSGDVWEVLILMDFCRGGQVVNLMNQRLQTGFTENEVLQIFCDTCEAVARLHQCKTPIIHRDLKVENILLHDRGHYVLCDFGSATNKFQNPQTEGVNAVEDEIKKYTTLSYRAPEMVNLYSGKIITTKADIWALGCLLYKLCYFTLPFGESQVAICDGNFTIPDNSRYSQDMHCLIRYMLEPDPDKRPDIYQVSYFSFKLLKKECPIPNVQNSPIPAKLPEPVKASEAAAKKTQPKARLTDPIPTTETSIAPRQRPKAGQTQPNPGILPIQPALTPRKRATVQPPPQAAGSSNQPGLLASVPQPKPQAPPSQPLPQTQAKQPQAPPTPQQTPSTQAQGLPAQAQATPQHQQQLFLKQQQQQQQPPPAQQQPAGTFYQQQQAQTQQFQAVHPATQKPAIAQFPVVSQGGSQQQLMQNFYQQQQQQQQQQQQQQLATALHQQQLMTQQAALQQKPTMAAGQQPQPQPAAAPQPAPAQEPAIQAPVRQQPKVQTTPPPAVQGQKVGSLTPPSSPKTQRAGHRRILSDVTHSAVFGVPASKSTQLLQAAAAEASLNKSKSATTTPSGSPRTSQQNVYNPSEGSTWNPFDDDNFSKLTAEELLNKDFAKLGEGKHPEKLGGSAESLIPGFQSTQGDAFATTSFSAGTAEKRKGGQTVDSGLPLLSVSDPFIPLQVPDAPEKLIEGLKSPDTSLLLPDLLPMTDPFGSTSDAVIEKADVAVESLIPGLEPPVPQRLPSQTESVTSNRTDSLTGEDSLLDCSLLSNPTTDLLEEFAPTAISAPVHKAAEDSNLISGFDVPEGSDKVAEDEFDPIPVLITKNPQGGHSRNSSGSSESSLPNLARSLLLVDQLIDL
Experimental: (§1) The kinase inhibitory potentials of compounds as described herein (e.g., SRI-42127 and SRI-41664) were evaluated by ThermoFisher Scientific's SelectScreen™ Kinase Profiling Service. The following kinase inhibitory assays were utilized: ZLYTE (Madison, WI) for NTRK1, PIM1, and cMET kinases; LanthaScreen Binding (Madison, WI) for AAK1 kinase; and Adapta (Madison, WI) for IRAK1 kinase.

[3] = target: IRAK1 (Homo sapiens, UniProt P51617); assay: SelectScreen kinase profiling, Adapta; format: biochemical
IRAK1, sequence (P51617 whole entry): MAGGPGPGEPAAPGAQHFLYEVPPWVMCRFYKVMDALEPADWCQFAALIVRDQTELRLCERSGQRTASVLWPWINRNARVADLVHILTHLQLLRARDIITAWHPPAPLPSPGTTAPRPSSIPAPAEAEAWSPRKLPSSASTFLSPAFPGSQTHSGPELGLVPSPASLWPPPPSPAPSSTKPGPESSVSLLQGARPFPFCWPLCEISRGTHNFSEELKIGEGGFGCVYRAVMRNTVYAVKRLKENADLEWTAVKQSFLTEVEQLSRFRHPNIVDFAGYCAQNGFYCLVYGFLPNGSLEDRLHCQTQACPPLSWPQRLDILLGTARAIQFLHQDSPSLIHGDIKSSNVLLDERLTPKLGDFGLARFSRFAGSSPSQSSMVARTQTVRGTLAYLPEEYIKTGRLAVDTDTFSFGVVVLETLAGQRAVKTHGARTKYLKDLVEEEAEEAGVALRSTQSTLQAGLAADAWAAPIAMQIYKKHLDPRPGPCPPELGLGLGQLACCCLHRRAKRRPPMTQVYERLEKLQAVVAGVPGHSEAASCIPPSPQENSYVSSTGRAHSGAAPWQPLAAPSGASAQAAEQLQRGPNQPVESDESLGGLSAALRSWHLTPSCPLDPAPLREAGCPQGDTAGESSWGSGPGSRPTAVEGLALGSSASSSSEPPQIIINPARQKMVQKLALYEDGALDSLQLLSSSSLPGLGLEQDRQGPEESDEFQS
Experimental: as §1

[4] = aqueous solubility at pH 7.4; format: physicochemical; details: aqueous medium at pH 7.4, pH 7.4, aqueous buffer; read-out: Sol @ pH 7.4
Experimental: Selected compounds were assessed for their aqueous solubility, Log D and mouse and human liver microsomal stability.

[5] = test system: LPS-induced neuroinflammatory response in the CNS; assay: in vivo LPS mouse model of neuroinflammation; parameters: species or system mice
Experimental: Administration of LPS intraperitoneally produces an acute neuroinflammatory response in the CNS including activation of microglia with production of inflammatory cytokines and chemokines. This model was used to test the effect of SRI-42127 on attenuating the neuroinflammatory response.
Mice were injected with LPS intraperitoneally (i.p.) and then given SRI-42127 at 15 mg/kg (or vehicle) i.p. starting at 30 min post LPS injection and then three subsequent doses at 6 hours, 12 hours, and 18 hours. Brains were harvested at 24 hours for analysis. To determine the impact of SRI-42127 on HuR localization in microglia in the brain, sections from the hippocampus from 3 vehicle control and 3 SRI-42127 treated mice were examined. Tissue sections were stained with IBA1 and HuR. Quantification methods for HuR localization were similar to immunocytochemistry. Briefly, IBA1+ cells were identified and the outline of the cell was traced with Fiji software. Nuclei were localized by DAPI staining. Nuclear and cytoplasmic HuR immunofluorescence was quantitated to calculate a N/C ratio. In vehicle-treated animals, there was translocation of HuR into the cytoplasm as indicated by a merged yellow signal whereas in SRI-42127 treated mice, there was little to no merged signal. Next, 20-30 IBA1+ cells from sections in 3 control and 3 treated mice were assessed. A 2-fold increase in the N/C ratio of mice treated with SRI-42127 was observed, confirming the effect of the drug as shown in FIG. 18 (bottom).
Next, the activation state of microglia was studied by measuring IBA1 intensity. Sections from the hippocampal region were stained with IBA1 and fluorescence intensity was measured using Fiji software from 5 sections of 3 mice per group. The reviewer was blinded to the identity of the samples.
Finally, the impact of SRI-42127 on infiltration of neutrophils and monocytes into the brain after LPS administration i.p. was assessed. Microglial HuR knockout (KO) mice were also assessed. […]

[6] = test system: microglia; assay: PrestoBlue cell viability assay in microglia; format: cell-based, mouse; details: tested dose range (up to 1 μM)
[7] = test system: secreted inflammatory factors of microglia; assay: ELISA of secreted factors in culture medium of LPS-activated microglia; format: cell-based, mouse
Experimental: Major chemokines CXCL1, CXCL2 and CCL3 were suppressed by more than 2-fold. There was a mixed effect on markers of M2-like markers, with TGF-β1 and YM1 increasing and IL-10 decreasing. As these inflammatory factors were secreted, they were quantified by ELISA in culture medium. The greatest effect was with IL-6 which was suppressed at a lower dose of SRI-42127 (1.7-fold at 0.1 μM) and nearly 10-fold at 1.0 μM. IL-1β and TNF-α were suppressed by 5-fold at 1.0 μM.

[8] = test system: HuR cytoplasmic translocation in primary microglial cells; assay: Imagestream single cell flow cytometry of HuR location in LPS-activated microglia; format: cell-based, mouse; details: 1 μM
Experimental: Cultured primary microglial cells isolated from neonatal mouse brain were treated with LPS to achieve activation. Cells were then treated with varying doses of SRI-42127 or vehicle. Imagestream single cell flow cytometry was used to track the location of HuR within microglial cells as depicted in FIG. 11, Panel A. DAPI was used as a flow marker for nuclear localization. For each cell, the percentage of HuR immunofluorescence that colocalized with the nuclear compartment versus the cytoplasmic compartment was quantified.
In the unstimulated state (DMSO), the characteristic nuclear predominance of HuR was observed as reflected by a low percentage of cells with high HuR in the cytoplasm. With LPS stimulation, there was an ˜8-fold increase in the percent of cells with high levels of HuR in the cytoplasm (˜60%). With SRI-42127 treatment, there was a significant dose-dependent decrease in cells with high cytoplasmic HuR. At 1 μM of SRI-42127, the percent of cells with high HuR was similar to resting (unactivated) microglia (˜10%).

[9] = 15 mg/kg i.p., all brain regions at 24 hours

CN(c1ccc2ncc(-c3ccc4cn[nH]c4c3)n2n1)C1CCOCC1 [Compound 19]
N/C HuR ratio [1]: 1.9 | IC50 [2]: 0.12 µM | IC50 [3]: 0.319 µM | solubility [4]: 2.4 µM (≈ 0.836 µg/mL) | increase in the HuR N/C ratio in microglia ([5]; 15 mg/kg i.p. at 30 min, 6, 12 and 18 hours post LPS, hippocampus at 24 hours): 2 fold | attenuation of infiltrating monocytes [5, 9]: 1.3- to 2 fold | attenuation of infiltrating neutrophils [5, 9]: 2 to 3 fold | toxicity to microglia [6]: did not cause toxicity | suppression of secreted IL-6 ([7]; 0.1 μM): 1.7 fold | suppression of secreted IL-1β ([7]; 1.0 μM): 5 fold | suppression of secreted IL-6 ([7]; 1.0 μM): ~10 fold | suppression of secreted TNF-α ([7]; 1.0 μM): 5 fold | percent of cells with high cytoplasmic HuR [8]: ~10%
